“Also recorded” adds a separate entry of the source.
What was measured:
[1] = molecular target: T1, human NPP1 (Homo sapiens, UniProt P22413); test: Inhibition of NPP1, pNP-TMP as substrate; assay type: biochemical; settings: Dixon and Cornish–Bowden methods
T1 sequence (P22413 1-925): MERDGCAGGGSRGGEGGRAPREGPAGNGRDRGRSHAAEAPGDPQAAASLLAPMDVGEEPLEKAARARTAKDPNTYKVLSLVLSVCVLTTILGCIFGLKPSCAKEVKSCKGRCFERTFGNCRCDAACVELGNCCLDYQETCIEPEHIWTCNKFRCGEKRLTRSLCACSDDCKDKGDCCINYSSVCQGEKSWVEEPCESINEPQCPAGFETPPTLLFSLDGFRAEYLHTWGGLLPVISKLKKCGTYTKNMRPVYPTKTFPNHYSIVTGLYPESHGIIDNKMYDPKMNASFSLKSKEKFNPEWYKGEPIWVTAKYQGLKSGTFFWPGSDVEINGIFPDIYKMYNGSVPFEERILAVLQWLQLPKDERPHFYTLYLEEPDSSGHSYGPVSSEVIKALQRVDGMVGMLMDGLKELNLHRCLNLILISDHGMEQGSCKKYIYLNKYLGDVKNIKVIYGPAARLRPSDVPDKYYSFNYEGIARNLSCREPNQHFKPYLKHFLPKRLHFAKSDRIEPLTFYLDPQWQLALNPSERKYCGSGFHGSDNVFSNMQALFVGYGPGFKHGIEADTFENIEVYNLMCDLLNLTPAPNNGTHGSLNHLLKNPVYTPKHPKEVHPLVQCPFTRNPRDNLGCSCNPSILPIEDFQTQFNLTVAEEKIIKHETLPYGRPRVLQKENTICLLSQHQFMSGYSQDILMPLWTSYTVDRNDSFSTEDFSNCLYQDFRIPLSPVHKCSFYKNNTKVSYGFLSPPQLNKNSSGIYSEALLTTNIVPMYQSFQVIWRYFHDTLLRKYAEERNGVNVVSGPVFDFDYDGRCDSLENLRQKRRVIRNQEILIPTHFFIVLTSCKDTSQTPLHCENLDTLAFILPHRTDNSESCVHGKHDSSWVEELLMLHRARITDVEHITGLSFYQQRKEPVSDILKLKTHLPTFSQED

[2] = molecular target: T2, human NTPDase3 (Homo sapiens, UniProt O75355); settings: analogue 100 μM as substrate; activity with 100 μM ATP set as 100%
T2 sequence (O75355 1-529): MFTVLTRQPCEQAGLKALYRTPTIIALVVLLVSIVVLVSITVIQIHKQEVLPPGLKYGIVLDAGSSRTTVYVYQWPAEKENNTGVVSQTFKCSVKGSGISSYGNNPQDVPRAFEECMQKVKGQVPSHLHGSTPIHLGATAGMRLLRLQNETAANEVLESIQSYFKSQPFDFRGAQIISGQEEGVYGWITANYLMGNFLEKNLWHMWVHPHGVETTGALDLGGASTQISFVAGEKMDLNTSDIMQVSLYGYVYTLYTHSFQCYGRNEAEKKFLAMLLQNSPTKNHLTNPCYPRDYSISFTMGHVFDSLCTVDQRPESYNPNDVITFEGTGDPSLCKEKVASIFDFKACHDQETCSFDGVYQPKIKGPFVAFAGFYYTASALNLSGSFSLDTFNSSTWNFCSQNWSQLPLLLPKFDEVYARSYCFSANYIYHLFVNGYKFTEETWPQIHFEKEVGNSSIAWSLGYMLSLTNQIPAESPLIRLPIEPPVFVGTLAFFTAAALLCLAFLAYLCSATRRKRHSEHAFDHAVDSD

[3] = molecular target: T3, TNAP (Homo sapiens, UniProt P05186); test: Inhibition of TNAP activity; assay type: biochemical; settings: analogue 100 μM
T3 sequence (P05186 18-502 limits assumed): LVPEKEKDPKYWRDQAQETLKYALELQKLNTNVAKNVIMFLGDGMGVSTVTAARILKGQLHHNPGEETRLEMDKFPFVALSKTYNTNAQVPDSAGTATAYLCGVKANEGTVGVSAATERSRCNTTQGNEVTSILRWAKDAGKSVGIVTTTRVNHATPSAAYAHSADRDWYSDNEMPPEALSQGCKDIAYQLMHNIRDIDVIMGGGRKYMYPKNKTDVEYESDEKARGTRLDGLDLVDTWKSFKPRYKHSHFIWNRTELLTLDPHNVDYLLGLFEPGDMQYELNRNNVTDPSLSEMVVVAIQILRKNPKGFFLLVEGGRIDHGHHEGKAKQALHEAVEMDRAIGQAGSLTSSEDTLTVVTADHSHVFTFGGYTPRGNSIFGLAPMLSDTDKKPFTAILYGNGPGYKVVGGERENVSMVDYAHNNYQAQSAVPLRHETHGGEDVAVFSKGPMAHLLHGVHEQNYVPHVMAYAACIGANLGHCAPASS

[4] = molecular target: T3, TNAP; test: TNAP stability assay: hydrolysis by TNAP; assay type: in vitro ADME; settings: 1 h, pH 9, 100 μM (data not shown)
[5] = molecular target: T4, P2Y11 receptor (Homo sapiens, UniProt Q96G91); test: [Ca2+]i elevation in 1321N1 astrocytoma cells expressing GFP-P2Y11 receptor; assay type: cell-based; settings: 1321N1 cells; nr = no response up to 10 μM
T4 sequence (Q96G91 1-374): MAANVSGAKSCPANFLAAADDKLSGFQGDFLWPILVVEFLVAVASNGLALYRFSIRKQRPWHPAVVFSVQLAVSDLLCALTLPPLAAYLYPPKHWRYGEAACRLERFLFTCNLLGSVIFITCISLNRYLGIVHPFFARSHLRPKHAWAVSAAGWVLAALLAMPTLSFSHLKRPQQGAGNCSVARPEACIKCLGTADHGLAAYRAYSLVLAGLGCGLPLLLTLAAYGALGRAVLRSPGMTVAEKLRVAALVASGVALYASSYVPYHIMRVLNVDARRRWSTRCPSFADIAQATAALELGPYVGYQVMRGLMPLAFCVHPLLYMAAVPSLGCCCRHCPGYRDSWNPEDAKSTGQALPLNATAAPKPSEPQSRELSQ

[6] = test system: human NTPDase1,2,3,8; test: Inhibition of NTPDase activity, text statements pooled over NTPDase1,2,3,8; assay type: biochemical; settings: analogue 100 μM, pooled over four NTPDases

| SMILES | type of inhibition [1] | relative activity (%) ± SD of ATP hydrolysis, NTPDase3 [2] [%] | inhibition of TNAP [3] | hydrolysis by TNAP [4] | EC50 ± SEM (μM), [Ca^2+]i elevation, P2Y11 [5] | inhibition of ATP hydrolysis by NTPDase1,2,3,8 [6] |
| --- | --- | --- | --- | --- | --- | --- |
| Nc1ncnc2c1ncn2[C@@H]1O[C@H](COP(=O)(O)CP(=O)(O)OP(O)(O)=S)[C@@H](O)[C@H]1O [compound 3] | mixed-type inhibition, predominantly competitive | 4.8 ± 0.2 | 8–17% | 2.5% |  |  |
| Nc1ncnc2c1ncn2[C@@H]1O[C@H](CO[P@](O)(=S)OP(=O)(O)C(Cl)(Cl)P(=O)(O)O)[C@@H](O)[C@H]1O [2a] | mixed-type inhibition, predominantly competitive | 5.2 ± 0.2 | 8–17% | fully stable | not agonists; also recorded: inactive; also recorded: not active, nr ^c | did not interfere |

From PMC4363092 (Journal of medicinal chemistry, 2014)
